Experimental data reported in PMC10604720, “Unraveling the Mechanism of Epichaperome Modulation by Zelavespib: Biochemical Insights on Target Occupancy and Extended Residence Time at the Site of Action” (Biomedicines, 2023).

What was measured:
epichaperomes [1] = experiment: In vivo target-drug unbinding kinetics taken from Phase 2 tumor pharmacokinetics; parameters: species or system mouse
Description: Figure 1 Biodistribution of zelavespib in MDA-MB-468 tumor-bearing mice. (a) Biodistribution of [^124I]-Zelavespib in MDA-MB-468 tumors, organs, tissues, and plasma as per ref. [32]. Data are presented as means ± s.d., five mice per time point. Curves for blood, lung, heart, muscle, bone, and brain were fitted using a one-phase decay equation, and kinetics of zelavespib clearance were determined. Tumor curve was fitted to a two-phase exponential decay. k, kfast, and kslow are the rate constants. Half-life (T1/2) is computed as ln(2)/k. […] (b) Illustrative schematic showing the distinct binding kinetics of zelavespib to epichaperomes (slow off-rate) and to chaperone assemblies (fast off-rate). The tumor pharmacokinetics profile recorded in the Phase 2 interval may represent a direct reflection of the in vivo kinetics of target–drug unbinding. koff, kinetic rate constant for dissociation of an epichaperome-zelavespib assembly. Rt, retention time. […]

epichaperomes [2] = experiment: Epichaperome determination by native PAGE / SDS-PAGE immunoblotting of MDA-MB-468 tumors; assay type: in vivo, mouse
Description: For epichaperome analysis, tumors were cut into small pieces and homogenized in native lysis buffer (20 mM HEPES pH 7.5, 50 mM KCl, 5 mM MgCl2, 0.01% NP40, 20 mM Na2MoO4) containing protease and phosphatase inhibitors using BioMasher® II Micro Tissue Homogenizers (VWR, Radnor, PA, USA). Samples were left on ice for 30 min and then subjected to native PAGE analysis. Protein concentrations were determined using the BCA kit (Pierce, Waltham, MA, USA) according to the manufacturer’s instructions. Protein lysate (10–60 µg) was loaded onto 5.5% native gel and resolved at 4 °C, transferred to nitrocellulose membrane, and probed with the indicated primary antibodies: HSP90α (AB2928; RRID:AB_303423; 1:8000) from Abcam (Cambridge, UK), HOP (ADI-SRA-1500; RRID:AB_10618972; 1:1000) from Enzo and CDC37 (4793S; RRID:AB_10695539; 1:1000) from Cell Signaling (Danvers, MA, USA). Membranes were then incubated with a 1:5000 dilution of a peroxidase-conjugated corresponding secondary antibody. Detection was performed using the ECL Enhanced Chemiluminescence Detection System (Pierce™ ECL Western Blotting Substrate) according to the manufacturer’s instructions.
In cellular studies, it has been proposed that zelavespib, upon binding, becomes trapped inside the epichaperome assemblies, leading to the disassembly of epichaperomes into individual components. However, this biochemical mechanism’s impact on the residence time of zelavespib at the site of action remains poorly understood in vivo. To investigate this, we analyzed the epichaperome target in tumors at 30 h and 72 h post-zelavespib administration using non-denaturing electrophoresis (native PAGE) (Figure 4a–c).
Figure 4 Epichaperome modulation by zelavespib in MDA-MB-468 tumor-bearing mice. (a) native-PAGE (top) or SDS-PAGE (bottom) followed by immunoblotting of epichaperome components (i.e., constituent chaperones and co-chaperones) in MDA-MB-468 tumors. Tumor-bearing mice were injected with a single dose of 50 mg/kg zelavespib, and tumor analysis was performed after sacrificing the mice at 30 h and 72 h post-zelavespib administration (n = 5 mice per time-point). Gels, representative tumors. To account for tumor heterogeneity (i.e., MDA-MB-468 are aggressive tumors with highly proliferative periphery adjacent to areas of necrosis), several cuts from the same tumor were analyzed when tumor size permitted. β-actin and GAPDH, protein loading controls; black arrowhead, biochemical signature of folding HSP90 pools as detected by native PAGE separation and immunoblotting; red arrowhead, non-specific signal, LE, low exposure; HE, high exposure. (b) Graph, data are presented as means ± s.e.m., n = 7, one-way ANOVA with Dunnett’s post hoc of tumors as in a. Because HSP90 in epichaperomes was not well separated from the folding HSP90 pool, we performed epichaperome quantification using CDC37 in epichaperomes as a surrogate marker. (c) Cartoon showing the proposed biochemical mechanism in vivo. Initially, zelavespib becomes trapped when epichaperomes bound, a mechanism that results in epichaperome disassembly, with no change in the expression level of epichaperome constituents. We propose that the initial trapping stage of epichaperomes is a main contributing factor to the extended on-target residence time observed for this agent in clinical settings. Zelavespib’s residence time in tumors seems to be dictated by target disassembly kinetics rather than by frank drug–target unbinding kinetics.

For `CC(C)NCCCn1c(Sc2cc3c(cc2I)OCO3)nc2c(N)ncnc21` [zelavespib], the “Rt = 1/koff (retention time)” value (epichaperomes [1]; epichaperome-zelavespib assembly) was 67.56 h, the “koff, dissociation of epichaperome-zelavespib assembly” value (epichaperomes [1]; taken as k of tumor Phase 2) was 4.11e-06 s⁻¹ and the “total chaperone levels on SDS-PAGE” value (epichaperomes [2]; 30 h post single 50 mg/kg) was “no corresponding alteration”. For the same compound, the “increase in epichaperome signal on native PAGE compared to baseline” value (epichaperomes [2]; 30 h post single 50 mg/kg, CDC37 in epichaperomes as surrogate marker) was about 2.29 fold, the “decrease of epichaperome levels compared to baseline” value (epichaperomes [2]; 72 h post single 50 mg/kg) was “approximately 1.8 fold” and the “total chaperone levels on SDS-PAGE” value (epichaperomes [2]; 72 h post single 50 mg/kg) was “no observable change”. For the same compound, the “decrease in epichaperome signal on native PAGE compared to 30 h” value (epichaperomes [2]; 72 h post single 50 mg/kg, CDC37 in epichaperomes as surrogate marker) was “approximately 4.15 fold” and the “baseline epichaperome target remaining in tumors” value (epichaperomes [2]; 72 h post-zelavespib administration) was “approximately 24.09%”.
